Results on one compound are retold here after US20240239735A1, “ACID ADDITION SALT OF ROCK INHIBITOR, AND CRYSTAL FORM, COMPOSITION AND PHARMACEUTICAL USE THEREOF” (WUHAN LL SCIENCE AND TECHNOLOGY DEVELOPMENT CO., LTD., priority 2021, published 2024).

Holding throughout (type): physicochemical
The nature of series [1]: Hygroscopicity test by dynamic vapor sorption (DVS). How it is done:
The sample was subjected to water adsorption/desorption tests using a Vsorp (ProUmid GmbH & Co. KG, Germany) water adsorption analyzer. The sample was placed in a tared sample tray, and the change in the sample mass with humidity (0-90% RH) at 25° C. was recorded.

Test in series [2]: as above
The conditions noted are these: from 0.0% RH to 95% RH.

A short description of series [3]: Solid state stability test (HPLC purity, XRPD). The following applies: 265 nm; for Purity (Area %): 1 week. How it is done:
(§1) The instrument used for HIPLC analysis was Agilent TIPLC 1260 series.
The samples after being stored 0 days, 1 week, and 2 weeks were taken and each dissolved in a diluent to prepare about 1.0 mg/mL solution, which was tested for chemical stability by HPLC. The solid sample after being stored for 1 week or 2 weeks was tested for physical stability by XRPD.

Series [4] can be described thus: Solubility test in biologically relevant media at 37° C. (HPLC, pH, XRPD of filter cake). The method, then:
as §1
The suspension was incubated by shaking on a shaker at 100 rpm at 37° C. 1 mL of the dispersion was taken at 0.5 h, 2 h, and 24 h, and filtered. The filtrate was tested for the solubility by HPLC and for the pH value by a pH meter. The filter cake was characterized for the crystal form by XRPD.

As a reminder, the Solubility is how much of the substance goes into solution per volume. Turning to `COc1cccc(CNC(=O)N2CCc3cc(-c4c[nH]nc4N)c(F)cc32)c1` [Fumarate crystal form II], the “XRPD pattern / crystal form before and after the DVS test” value in series [1] is recorded as “crystal form remained unchanged”. The Hygroscopicity entry in series [1] (DVS, assessment in words) is reported as “non-hygroscopic”. In addition, in series [2], the DVS water absorbed result is “about 0.2%”. Also, the “Initial purity (Area %)” value in series [3] (0 weeks, HPLC method of 7-day test) was determined as 99.30 Area %. Further, the “Purity (Area %)” value in series [3] (40° C./75% RH open) and in series [3] (60° C./sealed) was 99.20 Area % in each case. For the same compound, the Solubility came to 0.28 µg/mL in series [4] (FaSSIF, 37° C., 24 h); 132.92 µg/mL in series [4] (FeSSIF, 37° C., 24 h); 1425.24 µg/mL in series [4] (SGF, 37° C., 24 h). The pH of filtrate in series [4] (FaSSIF, 24 h (0 h: 6.50)) is given as 6.2; in series [4] (FeSSIF, 24 h (0 h: 5.00)), 4.9; in series [4] (SGF, 24 h (0 h: 1.20)), 1.2. In series [4] (SGF, 37° C., 24 h), the “XRPD (crystal form of filter cake)” value is recorded as “Remains unchanged”.
